Experimental data published in paper PMC8854719, “Phase 1A/1B dose-escalation and -expansion study to evaluate the safety, pharmacokinetics, food effects and antitumor activity of pamiparib in advanced solid tumours” (British Journal of Cancer, 2021).
Marks after values point to notes of the source that are not given here.

Assay: Safety and tolerability: adverse events, dose-limiting toxicities, MTD, RP2D (Phase 1A/1B)
Type: in vivo
Method: This was an open-label, Phase 1, dose-escalation/dose-expansion study, conducted across six study centres in Australia. The dose-escalation phase evaluated twice-daily (BID) and once-daily (QD) dosing, and the dose-expansion phase evaluated the BID RP2D from the dose-escalation phase and food effects (Fig. 1). The food-effects cohort comprised two sequences: fast followed by fed (sequence 1) and fed followed by fast (sequence 2). […] The decision to proceed to the next dose cohort was determined by the Safety Monitoring Committee and followed a modified 3 + 3 escalation scheme. […] When ≥2 DLTs occurred in the first 23 days of a dose level, the next lower dose level was declared the MTD. Safety was monitored and DLTs were assessed in all dose cohorts. […] The food-effects cohort investigated the effects of food on the PK of pamiparib in patients with advanced solid tumours.
The QD dosing regimen was added as an amendment to the protocol with the purpose of exploring the feasibility of a more convenient regimen.
Safety and tolerability were assessed throughout the study by monitoring adverse events (AEs), serious AEs, clinical laboratory measurements and physical examinations. Adverse events were categorised according to their severity (National Cancer Institute Common Terminology Criteria for Adverse Events v4.03) and relationship to the study treatment.

C[C@]12CCCN1CC1=NNC(=O)c3cc(F)cc4[nH]c2c1c34 [pamiparib]
1 (16.7)^a n (%): Dose-limiting toxicity (40 mg BID (n = 6))
3 (50.0) n (%): Treatment-emergent AE: Grade 3 or higher (40 mg BID (n = 6)) | Treatment-related AE: Leading to dose interruption (40 mg BID (n = 6)) | Treatment-related AE: Leading to dose modification (40 mg BID (n = 6))
2 (66.7) n (%): Diarrhoea, AE of any grade (20 mg BID (n = 3)) | Nausea, AE of any grade (20 mg BID (n = 3)) | Vomiting, AE of any grade (20 mg BID (n = 3))
2 (33.3) n (%): Anaemia, AE of any grade (40 mg BID (n = 6)) | Back pain, AE of any grade (40 mg BID (n = 6)) | Diarrhoea, AE of any grade (40 mg BID (n = 6)) | Fatigue, AE of any grade (40 mg BID (n = 6)) | Headache, AE of any grade (40 mg BID (n = 6)) | Neutropenia, AE of any grade (40 mg BID (n = 6)) | Treatment-emergent AE: Serious (40 mg BID (n = 6)) | Treatment-related AE: Grade 3 or higher (40 mg BID (n = 6))
2 (20.0) n (%): Abdominal pain, AE of any grade (80 mg BID (n = 10))
1 (16.7) n (%): Ascites, AE of any grade (40 mg BID (n = 6)) | Constipation, AE of any grade (40 mg BID (n = 6)) | Hypophosphatemia, AE of any grade (40 mg BID (n = 6)) | Increased AST, AE of any grade (40 mg BID (n = 6)) | Treatment-emergent AE: Leading to treatment discontinuation (40 mg BID (n = 6)) | Upper respiratory tract infection, AE of any grade (40 mg BID (n = 6))
3 (100.0) n (%): Fatigue, AE of any grade (20 mg BID (n = 3)) | Treatment-emergent AE (20 mg BID (n = 3)) | Treatment-emergent AE: Leading to dose interruption (20 mg BID (n = 3)) | Treatment-emergent AE: Leading to dose modification (20 mg BID (n = 3)) | Treatment-related AE (20 mg BID (n = 3))
6 (54.5) n (%): Nausea, AE of any grade (60 mg BID (n = 11))
4 (66.7) n (%): Treatment-emergent AE: Leading to dose interruption (40 mg BID (n = 6)) | Treatment-emergent AE: Leading to dose modification (40 mg BID (n = 6))
7 (63.6) n (%): Treatment-related AE (60 mg BID (n = 11))
5 (83.3) n (%): Nausea, AE of any grade (40 mg BID (n = 6)) | Vomiting, AE of any grade (40 mg BID (n = 6))
54.5%: Incidence of nausea (60 mg BID)
1 (9.1) n (%): Back pain, AE of any grade (60 mg BID (n = 11)) | Constipation, AE of any grade (60 mg BID (n = 11)) | Cough, AE of any grade (60 mg BID (n = 11)) | Decreased appetite, AE of any grade (60 mg BID (n = 11)) | Dyspnoea, AE of any grade (60 mg BID (n = 11)) | Hypophosphatemia, AE of any grade (60 mg BID (n = 11)) | Increased AST, AE of any grade (60 mg BID (n = 11)) | Muscle spasms, AE of any grade (60 mg BID (n = 11)) | Non-cardiac chest pain, AE of any grade (60 mg BID (n = 11)) | Pain in extremity, AE of any grade (60 mg BID (n = 11)) | Peripheral sensory neuropathy, AE of any grade (60 mg BID (n = 11)) | Treatment-related AE: Grade 3 or higher (60 mg BID (n = 11)) | Treatment-related AE: Serious (60 mg BID (n = 11)) | Upper respiratory tract infection, AE of any grade (60 mg BID (n = 11))
2 (18.2) n (%): Fatigue, AE of any grade (60 mg BID (n = 11)) | Hypoalbuminemia, AE of any grade (60 mg BID (n = 11)) | Pleural effusion, AE of any grade (60 mg BID (n = 11)) | Treatment-related AE: Leading to dose interruption (60 mg BID (n = 11)) | Treatment-related AE: Leading to dose modification (60 mg BID (n = 11))
11 (100.0) n (%): Treatment-emergent AE (60 mg BID (n = 11))
8 (72.7) n (%): Treatment-emergent AE: Leading to dose interruption (60 mg BID (n = 11)) | Treatment-emergent AE: Leading to dose modification (60 mg BID (n = 11))
4 (40.0) n (%): Anaemia, AE of any grade (80 mg BID (n = 10))
6 (100.0) n (%): Treatment-emergent AE (40 mg BID (n = 6)) | Treatment-related AE (40 mg BID (n = 6))
80.0%: Incidence of nausea (80 mg BID)
1 (33.3) n (%): Dyspnoea, AE of any grade (20 mg BID (n = 3)) | Headache, AE of any grade (20 mg BID (n = 3)) | Hypomagnesemia, AE of any grade (20 mg BID (n = 3)) | Pain in extremity, AE of any grade (20 mg BID (n = 3)) | Peripheral sensory neuropathy, AE of any grade (20 mg BID (n = 3)) | Treatment-emergent AE: Grade 3 or higher (20 mg BID (n = 3)) | Treatment-emergent AE: Leading to dose reduction (20 mg BID (n = 3)) | Treatment-emergent AE: Serious (20 mg BID (n = 3)) | Treatment-related AE: Grade 3 or higher (20 mg BID (n = 3)) | Treatment-related AE: Leading to dose interruption (20 mg BID (n = 3)) | Treatment-related AE: Leading to dose modification (20 mg BID (n = 3)) | Treatment-related AE: Leading to dose reduction (20 mg BID (n = 3)) | Urinary tract infection, AE of any grade (20 mg BID (n = 3))
3 (27.3) n (%): Abdominal pain, AE of any grade (60 mg BID (n = 11)) | Treatment-emergent AE: Leading to death (60 mg BID (n = 11)) | Urinary tract infection, AE of any grade (60 mg BID (n = 11))
4 (36.4) n (%): Anaemia, AE of any grade (60 mg BID (n = 11)) | Diarrhoea, AE of any grade (60 mg BID (n = 11)) | Vomiting, AE of any grade (60 mg BID (n = 11))
Grade 2 nausea: Dose-limiting toxicities observed (description) (40 mg BID, n = 1)
0 (0.0) n (%): Ascites, AE of any grade (20 mg BID (n = 3)) | Back pain, AE of any grade (20 mg BID (n = 3)) | Constipation, AE of any grade (20 mg BID (n = 3)) | Cough, AE of any grade (20 mg BID (n = 3)) | Decreased appetite, AE of any grade (20 mg BID (n = 3)) | Dose-limiting toxicity (20 mg BID (n = 3)) | Hypoalbuminemia, AE of any grade (20 mg BID (n = 3)) | Hypophosphatemia, AE of any grade (20 mg BID (n = 3)) | Increased AST, AE of any grade (20 mg BID (n = 3)) | Muscle spasms, AE of any grade (20 mg BID (n = 3)) | Neutropenia, AE of any grade (20 mg BID (n = 3)) | Non-cardiac chest pain, AE of any grade (20 mg BID (n = 3)) | Pleural effusion, AE of any grade (20 mg BID (n = 3)) | Pyrexia, AE of any grade (20 mg BID (n = 3)) | Treatment-emergent AE: Leading to death (20 mg BID (n = 3)) | Treatment-emergent AE: Leading to treatment discontinuation (20 mg BID (n = 3)) | Treatment-related AE: Leading to death (20 mg BID (n = 3)) | Treatment-related AE: Leading to treatment discontinuation (20 mg BID (n = 3)) | Treatment-related AE: Serious (20 mg BID (n = 3)) | Upper respiratory tract infection, AE of any grade (20 mg BID (n = 3)) | Abdominal pain, AE of any grade (40 mg BID (n = 6)) | Cough, AE of any grade (40 mg BID (n = 6)) | Decreased appetite, AE of any grade (40 mg BID (n = 6)) | Dyspnoea, AE of any grade (40 mg BID (n = 6)) | Hypoalbuminemia, AE of any grade (40 mg BID (n = 6)) | Hypomagnesemia, AE of any grade (40 mg BID (n = 6)) | Muscle spasms, AE of any grade (40 mg BID (n = 6)) | Non-cardiac chest pain, AE of any grade (40 mg BID (n = 6)) | Pain in extremity, AE of any grade (40 mg BID (n = 6)) | Peripheral sensory neuropathy, AE of any grade (40 mg BID (n = 6)) | Pleural effusion, AE of any grade (40 mg BID (n = 6)) | Pyrexia, AE of any grade (40 mg BID (n = 6)) | Treatment-emergent AE: Leading to death (40 mg BID (n = 6)) | Treatment-emergent AE: Leading to dose reduction (40 mg BID (n = 6)) | Treatment-related AE: Leading to death (40 mg BID (n = 6)) | Treatment-related AE: Leading to dose reduction (40 mg BID (n = 6)) | Treatment-related AE: Leading to treatment discontinuation (40 mg BID (n = 6)) | Treatment-related AE: Serious (40 mg BID (n = 6)) | Urinary tract infection, AE of any grade (40 mg BID (n = 6)) | Ascites, AE of any grade (60 mg BID (n = 11)) | Dose-limiting toxicity (60 mg BID (n = 11)) | Headache, AE of any grade (60 mg BID (n = 11)) | Hypomagnesemia, AE of any grade (60 mg BID (n = 11)) | Neutropenia, AE of any grade (60 mg BID (n = 11)) | Pyrexia, AE of any grade (60 mg BID (n = 11)) | Treatment-emergent AE: Leading to dose reduction (60 mg BID (n = 11)) | Treatment-emergent AE: Leading to treatment discontinuation (60 mg BID (n = 11)) | Treatment-related AE: Leading to death (60 mg BID (n = 11)) | Treatment-related AE: Leading to dose reduction (60 mg BID (n = 11)) | Treatment-related AE: Leading to treatment discontinuation (60 mg BID (n = 11))
9 (81.8) n (%): Treatment-emergent AE: Grade 3 or higher (60 mg BID (n = 11)) | Treatment-emergent AE: Serious (60 mg BID (n = 11))
